In patent US11759461B2, “Small molecule inhibitors of cancer stem cells and mesenchymal cancer types” (The Scripps Research Institute, priority 2017, dated 2023):
Where two headings read alike, the source gives them in different places.

What was measured:
Assay type in all cases: cell-based
[1] = system: control HMLER cells; test: Cell Titer Glo viability of control HMLER cells; settings: Homo sapiens; 72-hour incubation; read-out: HMLER IC50
Description: An engineered cancer cell line HMLER as an isogenic screening system was employed to identify compounds that are selectively toxic to the FOXC2 positive genotype. HMLER cells are derived from mammary epithelial cells (HMECs), but are virally transformed with the […] oncogene (G12V), human telomerase reverse transcriptase (hTERT), and SV40 large-T antigen (B. Elenbaas, B. et al. Genes Dev. 15 (2001) 50-65). Expression of these genes endows HMLER cells with functional immortality and tumorigenic potential at high seeding number (>10^6 cells; Hollier (2013)). […]
For high throughput screening, FOXC2-HMLER and HMLER cells were plated at 10^3 cells per well in white 384-well plates in 50 μL of MEGM medium (Lonza). […] After 72-hour incubation, 30 μL of a Cell Titer Glo solution (diluted 1:6 in water, Promega) was dispensed into each well and luminance values were recorded using an Envision plate reader. […]
More specifically, in the high throughput screening assay above, each cell line was plated at 1,000 cells per well in 384-well plates, treated for 72 hours with 2 μM of test compound, and the viability of each line was determined in parallel by Cell Titer Glo (Promega) luminance measurements. […]

[2] = system: STS cell lines (HT 1080, SW684, RD, GCT, SW872, SW982); test: Anti-proliferative activity against soft tissue sarcoma cell line panel
Description: The propagation conditions and generation of FOXC2-HMLER, HMLER, SNAIL-HMLER, SNAIL-HMLE, and SUM159 cells have been described previously (Mani (2008)). MCF-7, HepG2, HCT116, and MDA-MB-231 cells were from ATCC and maintained in DMEM medium (Corning) supplemented with 10% FBS (Corning) with Anti-anti (Gibco). The soft tissue sarcoma cell line panel was purchased from ATCC (TCP-1019) and maintained in the recommended medium for each cell type. HUVEC cells (pooled donor) were maintained in EBM-2 medium (both from Lonza Walkersville). Primary human lung fibroblasts were maintained in Fibroblast Medium (both from Sciencell Research Laboratories). For cell growth experiments, HLFs were grown in DMEM supplemented with 2% FBS and Anti-anti. For all experiments, primary human cells were used at a passage no greater than 4.
For high throughput screening, FOXC2-HMLER and HMLER cells were plated at 10^3 cells per well in white 384-well plates in 50 μL of MEGM medium (Lonza). Cells were allowed to attach for one hour before compound was transferred to each well as a DMSO solution using a 100 nL pintool head affixed to a PerkinElmer FX instrument. After 72-hour incubation, 30 μL of a Cell Titer Glo solution (diluted 1:6 in water, Promega) was dispensed into each well and luminance values were recorded using an Envision plate reader. […] Selected hit compounds were reordered from ChemDiv and tested for selective toxicity in 10-point response assays as above. All other miniaturized, selective viability experiments were performed as above using the indicated growth medium.
The anti-proliferative activity of Compound 1 was assessed against a selection of soft tissue sarcomas (STS), which collectively refers to a broad grouping of over 50 subtypes of connective tissue derived cancers for which targeted therapies are lacking (Zambo (2014)). […]
A panel of 6 STS cell lines were evaluated, which cell lines included the histological subtypes of fibrosarcoma (HT 1080, SW684), rhabdomyosarcoma (RD), fibrous histiocytoma (GCT), liposarcoma (SW872), and synovial sarcoma (SW982). […]

[3] = target: T1, VIM (Homo sapiens, UniProt P08670); test: Western blotting / immunofluorescence of VIM protein status in FOXC2-HMLER cells
T1 construct: endogenous in cells; host or cells: FOXC2-HMLER
Experimental: Western blotting was performed essentially as described previously (M. J. Bollong et al. ACS Chem. Biol. 10 (2015) 2193-2198). Cells were collected by brief trypsinization and centrifugation at 500 g for 5 minutes. Cells were lysed by the addition of RIPA buffer with protease and phosphatase inhibitors (Roche). Lysates were incubated on ice for 30 minutes before eliminating insoluble protein content by centrifugation at 12,000 g for 5 minutes at 4° C. Protein concentrations were determined from absorbance values obtained by a Nanodrop instrument. Equal amounts of protein were then mixed with 2× loading buffer (100 mM TRIS-HCl, 1% SDS, 10% glycerol, 0.1% bromophenol blue 10%-mercaptoethanol) and exposed to 95° C. for 5 minutes. Protein was separated by SDS-PAGE using 4-12% Bis-Tris Gels (Invitrogen) and then transferred to PVDF membranes (Invitrogen) using semi-dry transfer. Membranes were blocked for 1 hour at room temperature in 5% non-fat dry milk in TBST (Tris buffered saline with 0.1% Tween 20). Membranes were incubated overnight with primary antibodies in blocking buffer overnight at the dilutions ranging from 1:500 to 1:2000. After 3 washes with TBST, membranes were then exposed to HRP-conjugated secondary antibodies (1:5000 in blocking buffer, Sigma) for one hour followed by one hour of additional washing with TBST. Relative protein content was visualized using film and SuperSignal West Dura Substrate. For VIM degradation blots, 20-60 μg of protein content was loaded per gel lane and the anti-VIM antibody V9 (ab8069) was used to blot for VIM protein content. Phospho-protein blots were performed as above with the exception that primary antibodies were incubated in 5% bovine serum albumin in TBST instead of milk.
We performed Western blotting analysis of FOXC2-HMLER cells treated for 24 hours with Compound 1 with commercially available antibodies targeting specific phosphorylated VIM species (P-S39, P-S56, P-S83).
In contrast, only a small fraction of cells undergoing mitosis stained positive for P-S56-VIM in DMSO-treated controls, consistent with previous reports identifying phosphorylation at S56 as a modification catalyzed by cyclin dependent kinase 1 (CDK1; FIG. 6) (T. Yamaguchi, T. et al., J. Cell Biol. 171 (2005) 431-436.

[4] = FOXC2-HMLER cells, 24 hours, 500 nM, Western blotting
[5] = FOXC2-HMLER cells, Western blotting

T1 sequence (P08670 whole entry): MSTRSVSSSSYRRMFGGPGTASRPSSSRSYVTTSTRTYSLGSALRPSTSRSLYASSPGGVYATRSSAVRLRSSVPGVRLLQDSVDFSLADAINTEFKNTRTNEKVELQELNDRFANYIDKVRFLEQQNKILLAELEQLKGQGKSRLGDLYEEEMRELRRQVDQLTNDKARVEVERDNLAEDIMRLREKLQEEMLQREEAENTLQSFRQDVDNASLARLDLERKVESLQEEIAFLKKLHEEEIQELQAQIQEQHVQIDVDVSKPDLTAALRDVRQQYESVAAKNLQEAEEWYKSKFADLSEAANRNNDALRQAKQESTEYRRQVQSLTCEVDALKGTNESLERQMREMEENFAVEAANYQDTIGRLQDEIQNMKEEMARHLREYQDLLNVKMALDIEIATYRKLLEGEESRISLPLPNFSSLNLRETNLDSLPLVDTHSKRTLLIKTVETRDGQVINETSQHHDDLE

For Clc1cccc(N2CCN(c3cnnc4c(Cl)cccc34)CC2)c1 [Compound 1, 8-chloro-4-(4-(3-chlorophenyl)piperazin-1-yl)cinnoline], the IC50 [1] was greater than 20000 nM, the IC50 ([2]; Homo sapiens, SW872 liposarcoma cell line, read-out: IC50, SW872 cells) was 440 nM and the “multinucleation phenotype in STS cell lines” value ([2]; all STS cell lines, 24-hour treatment) was “robust multinucleation phenotype”. The IC50 ([2]; panel of 6 STS cell lines, read-out: IC50 values, growth of all STS cell lines) was 440 to 1310 nM, the “P-S39- and P-S83-VIM protein content” value [3, 4] was “modest increase” and the “steady state levels of P-S56-VIM” value [3, 4] was “marked increase”. For the same compound, the “dibromobimane-crosslinked dimeric VIM protein content” value [3, 5] was “dramatically reduced”, the “lower molecular weight VIM degradation products” value [3, 5] was “dose-dependent accumulation” and the “P-S56-VIM positive FOXC2-HMLER cells” value ([3]; immunofluorescent staining) was “concentration dependent increase”.
